Like-named read-outs stand apart in the source and are kept apart here. One block for each compound: values may come before it.
Experiments:
Type in all cases: binding
[1] = target: T1, UniProt Q9BSL1 (Homo sapiens, UniProt Q9BSL1); test: Cysteine liganding, probe competition
T1 construct: 200 μL of lysate containing 5 mg/ml proteome was treated with 2 μL of 100× compound stock; endogenous in cells
T1 sequence (Q9BSL1 1-405): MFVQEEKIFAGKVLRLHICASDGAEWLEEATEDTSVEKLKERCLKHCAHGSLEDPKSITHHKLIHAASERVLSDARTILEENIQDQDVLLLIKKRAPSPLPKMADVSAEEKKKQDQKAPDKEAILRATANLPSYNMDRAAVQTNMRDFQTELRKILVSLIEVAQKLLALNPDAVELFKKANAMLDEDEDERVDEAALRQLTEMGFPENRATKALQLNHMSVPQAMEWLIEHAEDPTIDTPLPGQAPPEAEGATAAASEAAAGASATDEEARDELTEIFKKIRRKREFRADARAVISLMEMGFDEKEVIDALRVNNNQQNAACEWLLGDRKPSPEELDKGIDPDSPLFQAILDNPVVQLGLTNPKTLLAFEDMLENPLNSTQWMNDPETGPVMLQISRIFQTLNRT
Source text: (§1) The following 96-well sample prep protocol was used for sample preparation.

[2] = target: T2, Q9P2G1 (Homo sapiens, UniProt Q9P2G1); test: Competitive cysteine profiling, probe competition (Table 2B)
T2 construct: Cells were resuspended in cold PBS on ice and sonicated with a probe sonicator to achieve lysis; endogenous in cells
T2 sequence (Q9P2G1 1-1089): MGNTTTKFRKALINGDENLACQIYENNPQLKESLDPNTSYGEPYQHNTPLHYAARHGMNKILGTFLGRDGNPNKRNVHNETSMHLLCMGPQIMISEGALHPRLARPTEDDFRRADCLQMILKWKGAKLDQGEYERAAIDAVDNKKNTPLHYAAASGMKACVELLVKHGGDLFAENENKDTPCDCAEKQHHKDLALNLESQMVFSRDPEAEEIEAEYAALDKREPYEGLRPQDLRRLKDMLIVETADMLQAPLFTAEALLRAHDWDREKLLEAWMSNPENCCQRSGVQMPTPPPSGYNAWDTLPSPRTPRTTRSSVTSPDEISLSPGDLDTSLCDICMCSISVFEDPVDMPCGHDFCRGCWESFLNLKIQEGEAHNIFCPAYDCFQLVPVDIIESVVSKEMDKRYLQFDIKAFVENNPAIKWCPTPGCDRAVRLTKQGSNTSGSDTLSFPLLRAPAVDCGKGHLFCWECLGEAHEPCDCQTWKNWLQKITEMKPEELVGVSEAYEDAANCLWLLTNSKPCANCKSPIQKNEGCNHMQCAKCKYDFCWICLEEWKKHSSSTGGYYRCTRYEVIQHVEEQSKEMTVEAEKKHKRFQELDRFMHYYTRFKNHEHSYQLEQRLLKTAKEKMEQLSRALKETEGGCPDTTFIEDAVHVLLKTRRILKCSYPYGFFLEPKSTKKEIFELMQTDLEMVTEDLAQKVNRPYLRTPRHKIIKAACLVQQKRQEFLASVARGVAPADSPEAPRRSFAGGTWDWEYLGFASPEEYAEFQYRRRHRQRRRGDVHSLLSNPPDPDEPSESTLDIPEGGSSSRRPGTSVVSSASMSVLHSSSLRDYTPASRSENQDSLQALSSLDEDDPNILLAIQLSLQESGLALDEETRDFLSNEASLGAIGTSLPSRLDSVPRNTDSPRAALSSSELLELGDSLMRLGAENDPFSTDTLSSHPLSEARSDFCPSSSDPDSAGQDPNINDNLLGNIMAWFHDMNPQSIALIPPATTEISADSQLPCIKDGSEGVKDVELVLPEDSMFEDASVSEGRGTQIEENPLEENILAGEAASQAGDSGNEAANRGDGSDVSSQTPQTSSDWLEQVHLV
Source text: as §1

[3] = target: T3, Q9UJX4 (Homo sapiens, UniProt Q9UJX4); test: as above
T3 construct: Cells were resuspended in cold PBS on ice and sonicated with a probe sonicator to achieve lysis; endogenous in cells
Source text: as §1

[4] = target: T4, Q96Q07 (Homo sapiens, UniProt Q96Q07); test: as above
T4 construct: 200 μL of lysate containing 5 mg/ml proteome was treated with 2 μL of 100× compound stock; endogenous in cells
T4 sequence (Q96Q07 1-612): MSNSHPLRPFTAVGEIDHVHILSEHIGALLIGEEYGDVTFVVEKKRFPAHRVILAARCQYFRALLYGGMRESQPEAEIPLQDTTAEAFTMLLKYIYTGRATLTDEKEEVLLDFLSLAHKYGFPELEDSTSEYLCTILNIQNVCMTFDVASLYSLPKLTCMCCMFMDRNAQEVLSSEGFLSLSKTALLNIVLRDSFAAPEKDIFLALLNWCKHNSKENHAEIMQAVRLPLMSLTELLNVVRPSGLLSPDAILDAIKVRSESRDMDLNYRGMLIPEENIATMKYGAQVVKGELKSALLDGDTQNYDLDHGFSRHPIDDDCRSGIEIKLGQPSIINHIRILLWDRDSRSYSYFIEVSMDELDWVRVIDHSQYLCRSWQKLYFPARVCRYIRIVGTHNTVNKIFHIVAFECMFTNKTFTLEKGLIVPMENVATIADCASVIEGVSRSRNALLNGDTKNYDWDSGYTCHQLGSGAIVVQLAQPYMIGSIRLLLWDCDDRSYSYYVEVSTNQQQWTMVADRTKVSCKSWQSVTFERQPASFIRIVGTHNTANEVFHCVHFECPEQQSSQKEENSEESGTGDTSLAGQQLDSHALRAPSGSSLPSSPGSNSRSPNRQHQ
Source text: as §1

[5] = target: T5, Q9H0C5 (Homo sapiens, UniProt Q9H0C5); test: as above
T5 construct: 200 μL of lysate containing 5 mg/ml proteome was treated with 2 μL of 100× compound stock; endogenous in cells
T5 sequence (Q9H0C5 1-482): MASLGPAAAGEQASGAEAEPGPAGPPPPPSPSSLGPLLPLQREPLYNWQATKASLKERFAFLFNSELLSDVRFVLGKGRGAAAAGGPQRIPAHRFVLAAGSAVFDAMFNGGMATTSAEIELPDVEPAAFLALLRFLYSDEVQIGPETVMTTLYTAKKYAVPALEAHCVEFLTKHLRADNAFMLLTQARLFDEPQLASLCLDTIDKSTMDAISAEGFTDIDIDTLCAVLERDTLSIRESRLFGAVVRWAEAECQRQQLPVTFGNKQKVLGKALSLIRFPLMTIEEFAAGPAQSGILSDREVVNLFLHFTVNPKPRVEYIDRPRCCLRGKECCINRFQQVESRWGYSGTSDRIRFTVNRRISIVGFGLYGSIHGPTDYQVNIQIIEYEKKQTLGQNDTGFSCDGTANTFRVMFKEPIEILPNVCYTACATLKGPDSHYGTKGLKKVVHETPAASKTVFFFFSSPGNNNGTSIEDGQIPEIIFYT
Source text: as §1

[6] = target: T6, Q9BSF8 (Homo sapiens, UniProt Q9BSF8); test: as above
T6 construct: 200 μL of lysate containing 5 mg/ml proteome was treated with 2 μL of 100× compound stock; endogenous in cells
Source text: as §1

[7] = 100 uM, read-out: KB05_100 uM_percent_inhibition
[8] = 500 uM, read-out: KB05_500 uM_percent_inhibition

T6 sequence (Q9BSF8 whole entry): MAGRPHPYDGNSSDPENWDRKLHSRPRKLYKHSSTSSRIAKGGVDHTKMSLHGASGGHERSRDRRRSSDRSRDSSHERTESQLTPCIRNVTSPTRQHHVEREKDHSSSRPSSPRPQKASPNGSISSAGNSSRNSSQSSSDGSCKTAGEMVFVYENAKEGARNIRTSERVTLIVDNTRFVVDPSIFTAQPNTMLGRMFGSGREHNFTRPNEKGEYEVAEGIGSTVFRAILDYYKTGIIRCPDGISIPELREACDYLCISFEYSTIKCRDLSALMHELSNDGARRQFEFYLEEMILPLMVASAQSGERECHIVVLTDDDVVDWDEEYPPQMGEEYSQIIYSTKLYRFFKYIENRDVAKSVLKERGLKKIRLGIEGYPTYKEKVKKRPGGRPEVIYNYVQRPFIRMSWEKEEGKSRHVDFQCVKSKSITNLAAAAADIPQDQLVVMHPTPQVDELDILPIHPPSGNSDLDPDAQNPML
T3 sequence (Q9UJX4 whole entry): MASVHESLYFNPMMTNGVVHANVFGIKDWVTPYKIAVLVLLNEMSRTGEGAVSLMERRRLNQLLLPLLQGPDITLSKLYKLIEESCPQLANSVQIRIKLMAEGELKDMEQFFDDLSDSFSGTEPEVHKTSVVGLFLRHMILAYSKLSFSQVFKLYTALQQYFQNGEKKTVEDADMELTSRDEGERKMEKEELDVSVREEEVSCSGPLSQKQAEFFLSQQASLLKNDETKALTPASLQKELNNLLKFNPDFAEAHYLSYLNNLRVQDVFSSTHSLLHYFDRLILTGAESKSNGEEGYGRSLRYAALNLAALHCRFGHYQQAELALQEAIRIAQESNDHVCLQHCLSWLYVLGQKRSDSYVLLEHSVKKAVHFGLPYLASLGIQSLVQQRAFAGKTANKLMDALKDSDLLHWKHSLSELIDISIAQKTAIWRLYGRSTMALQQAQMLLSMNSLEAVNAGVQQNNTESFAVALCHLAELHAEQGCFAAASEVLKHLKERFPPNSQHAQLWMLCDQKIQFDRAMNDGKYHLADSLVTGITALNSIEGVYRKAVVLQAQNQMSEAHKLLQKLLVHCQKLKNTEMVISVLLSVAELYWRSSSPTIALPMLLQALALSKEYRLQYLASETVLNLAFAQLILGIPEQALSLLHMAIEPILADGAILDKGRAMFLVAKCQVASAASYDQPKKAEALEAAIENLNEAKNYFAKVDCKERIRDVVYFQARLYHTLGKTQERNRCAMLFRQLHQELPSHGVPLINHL

- inhibition at 100 µM [1, 7]: 36%
- KB05_500 uM_percent_inhibition ([1]; 500 uM): 57%
- inhibition at 500 µM [1, 8]: 48%
- KB05_100 uM_percent_inhibition ([2]; 100 uM): 22%
- inhibition at 100 µM ([2]; read-out: KB05_100 uM_percent_inhibition): 41%
- inhibition at 100 µM [3, 7]: 9%
- inhibition at 500 µM [3, 8]: 74%
- inhibition at 500 µM ([4]; read-out: KB05_500 uM_percent_inhibition): 65%
- KB05_500 uM_percent_inhibition ([5]; 500 uM): 36%
- inhibition at 500 µM [5, 8]: 56%
- inhibition at 100 µM [6, 7]: 27%
- KB05_500 uM_percent_inhibition ([6]; 500 uM): 53%
- inhibition at 500 µM [6, 8]: 37%
Structure (SMILES): C=CC(=O)N(c1ccccc1)c1ccc(Br)cc1 [KB05]

Structure (SMILES): COc1ccc2c(c1)CCCN2C(=O)CCl [KB02]
- KB02_500 uM_percent_inhibition ([4]; 500 uM): 45%
- inhibition at 500 µM ([4]; read-out: KB02_500 uM_percent_inhibition): 54%
- inhibition at 100 µM ([5]; 100 uM, read-out: KB02_100 uM_percent_inhibition): 9%

Structure (SMILES): O=C(CCl)Nc1cc(C(F)(F)F)cc(C(F)(F)F)c1 [KBO3]
- KB03_100 uM_percent_inhibition ([1]; 100 uM): 36%
- KB03_100 uM_percent_inhibition ([2]; 100 uM): 29%
- KB03_100 uM_percent_inhibition ([3]; 100 uM): 31%
- KB03_100 uM_percent_inhibition ([6]; 100 uM): 29%

From US20200239530A1, “COMPOUNDS AND METHODS OF MODULATING PROTEIN DEGRADATION” (Vividion Therapeutics, Inc., priority 2017, published 2020)
